The target of one test is Acetylcholinesterase (Homo sapiens, UniProt P22303). As to the kind of experiment: Inhibition of AChE (unknown origin) using acetyl thiocholine iodide as substrate after 30 mins by Ellman's method. For orientation: Ellman's reagent forms a yellow product with free thiols.
The target in another test is Cholinesterase (Homo sapiens, UniProt P06276). In words: Inhibition of BChE (unknown origin) using butyryl thiocholine iodide as substrate after 30 mins by Ellman's method.

As usually defined, the IC50 is the concentration that inhibits the measured activity by half. Low values mean greater potency in that assay, high ones weaker potency in that assay.

Acetylcholinesterase, sequence (P22303 whole entry): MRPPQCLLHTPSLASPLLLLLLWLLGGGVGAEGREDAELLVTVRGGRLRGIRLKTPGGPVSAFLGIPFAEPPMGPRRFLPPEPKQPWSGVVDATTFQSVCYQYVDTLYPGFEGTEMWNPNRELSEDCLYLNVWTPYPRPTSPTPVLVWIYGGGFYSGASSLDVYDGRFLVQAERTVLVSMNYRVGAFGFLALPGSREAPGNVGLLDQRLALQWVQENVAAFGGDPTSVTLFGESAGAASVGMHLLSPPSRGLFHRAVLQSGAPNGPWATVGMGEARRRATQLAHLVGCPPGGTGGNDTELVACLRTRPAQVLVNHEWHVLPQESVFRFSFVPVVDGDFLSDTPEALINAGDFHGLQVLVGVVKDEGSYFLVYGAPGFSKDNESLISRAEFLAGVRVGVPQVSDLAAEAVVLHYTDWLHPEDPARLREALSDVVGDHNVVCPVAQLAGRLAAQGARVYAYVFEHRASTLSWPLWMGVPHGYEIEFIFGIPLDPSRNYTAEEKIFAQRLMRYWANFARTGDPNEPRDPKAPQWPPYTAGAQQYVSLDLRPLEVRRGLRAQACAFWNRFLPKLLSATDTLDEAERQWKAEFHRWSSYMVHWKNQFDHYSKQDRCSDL
Cholinesterase, sequence (P06276 whole entry): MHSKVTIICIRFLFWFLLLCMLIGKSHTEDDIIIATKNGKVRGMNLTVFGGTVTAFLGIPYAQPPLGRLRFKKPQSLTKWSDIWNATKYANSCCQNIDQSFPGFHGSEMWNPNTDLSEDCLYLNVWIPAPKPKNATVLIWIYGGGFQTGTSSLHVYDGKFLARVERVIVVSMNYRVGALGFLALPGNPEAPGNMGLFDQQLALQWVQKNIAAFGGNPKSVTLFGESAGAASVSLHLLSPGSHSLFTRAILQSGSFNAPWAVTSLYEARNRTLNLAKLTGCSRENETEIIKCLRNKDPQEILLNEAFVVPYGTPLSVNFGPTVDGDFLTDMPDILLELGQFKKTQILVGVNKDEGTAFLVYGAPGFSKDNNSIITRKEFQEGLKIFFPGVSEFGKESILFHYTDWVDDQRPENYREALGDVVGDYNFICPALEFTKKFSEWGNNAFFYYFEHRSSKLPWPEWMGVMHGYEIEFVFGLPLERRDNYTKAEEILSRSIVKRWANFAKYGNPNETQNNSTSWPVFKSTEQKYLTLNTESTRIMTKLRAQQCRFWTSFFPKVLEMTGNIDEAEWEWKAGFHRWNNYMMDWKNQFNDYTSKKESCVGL

On to `CC(=O)NC=C1C(=O)NC(=O)NC1=O`, for which the IC50 worked out at 90.9 µM at Acetylcholinesterase and 116 µM at Cholinesterase.
For the molecule `N#Cc1ccc(NC(=S)NNC=C2C(=O)NC(=O)NC2=O)cc1`, half-maximal inhibition against Cholinesterase (IC50) was put at 231 µM.
In the case of `O=C1NC(=O)C(=CNNC(=O)Nc2ccccc2)C(=O)N1`, inhibition against Cholinesterase was half-maximal at 38.5 µM (IC50).
Turning to `COc1ccc(NC(=S)NNC=C2C(=O)NC(=S)NC2=O)cc1`, the half-inhibitory concentration (IC50) was 206 µM at Acetylcholinesterase and 56.8 µM against Cholinesterase.
Regarding `O=C1NC(=O)C(=CNNC(=S)Nc2cccc(C(F)(F)F)c2)C(=O)N1`, the IC50 is 40.7 µM at Acetylcholinesterase and 136 µM against Cholinesterase.
On the same counts, the results for `O=C1NC(=S)NC(=O)C1=CNNC(=S)Nc1ccc(C(F)(F)F)cc1` are 99.4 µM and 8.1 µM.
On the same counts, the results for `O=C1NC(=S)NC(=O)C1=CNNC(=S)Nc1ccc(Br)cc1` are 79.2 µM and 68.4 µM.
On to `O=C1NC(=S)NC(=O)C1=CNNC(=S)Nc1ccccc1`, for which the half-inhibitory concentration (IC50) turned out to be 115 µM at Acetylcholinesterase and 57.1 µM at Cholinesterase.
The corresponding values for `O=C1NC(=S)NC(=O)C1=CNNC(=S)Nc1ccc(F)cc1` are 78.4 µM and 57.8 µM.
Consider `Cc1cccc(Cl)c1NC(=S)NNC=C1C(=O)NC(=O)NC1=O`, for which 8.81 µM corresponded to half-maximal inhibition against Cholinesterase (IC50).
For `O=C1NC(=S)NC(=O)C1=CNNC(=S)Nc1ccc(Cl)cc1`, the half-inhibitory concentration (IC50) was 121 µM at Acetylcholinesterase and 75.4 µM against Cholinesterase.
Regarding `NC(=S)NNC=C1C(=O)NC(=O)NC1=O`, the IC50 on Acetylcholinesterase was found to be 119 µM; against Cholinesterase, 56.5 µM.
The corresponding values for `O=C(NNC=C1C(=O)NC(=S)NC1=O)Nc1ccccc1` are 74.2 µM and 3.31 µM.

Source of the values: BindingDB's records for doi:10.1007/s00044-013-0847-2 (n/a, 2013).
